# Literature values, collected in patent US20140023728A1, “Iodine Liquid Soap, Dispenser and Method” (priority 2012, published 2014).
# Where two headings read alike, the source gives them in different places.
smiles,measurement,setting,value
"II [Elemental iodine, iodine]",volume of water in which one gram dissolves,one gram in water at 20 degrees Celsius,3450 mL
same,volume of water in which one gram dissolves,one gram in water at 50 degrees Celsius,1280 mL
